Source: patent US10670600B2, “Saposin-A derived peptides and uses thereof” (CHILDREN'S MEDICAL CENTER CORPORATION, priority 2007, dated 2020)
Bridge positions count the residues as written; N and C are the ends. Ends that are not written are not given here.

What was measured:
Psap in PC3-MycER cells = assay: Psap levels in PC3-MycER cells, western blot; assay type: cell-based, human; details: induction of Myc function
Method: For Western blotting, cells were harvested by mechanical scraping into 4° C. PBS, cell pellets were obtained by removing PBS after centrifugation at 13,000 rpm in a Heraeus Biofuge Fresco (Thermo Electron, Asheville, N.C.) for 2 min. Cells were then lysed in 50 mM Tris-HCl (pH 7.4), 150 mM NaCl, 1% NP40, 1 mM sodium orthovanadate, 5 mM NaF, 20 mM β-glycerophosphate, and complete protease inhibitor (Roche, Indianapolis, Ind.) and protein concentrations were determined by the BioRad protein assay (BioRad, Hercules, Calif.). Fifty micrograms of protein were loaded per well onto a 4-12% pre-cast Bis-Tris gel (BioRad, Hercules, Calif.). The protein extracts were electrophoresed and transferred to an immobilon-P membrane (Millipore, Bedford, Mass.). The membranes were blocked in 5% nonfat milk and incubated in primary antibody to Tsp-1 (Ab-11, LabVision, Fremont, Calif.), c-Myc and phospho-Myc (Cell Signaling Technology, Beverly, Mass.), Prosaposin (Santa Cruz Biotechnology, Santa Cruz, Calif.), β-actin (AbCam, Cambridge, UK). The membranes were then washed in PBS+0.1% Tween-20 and incubated with either HRP-conjugated goat anti-mouse or anti-rabbit secondary antibody (Jackson Immunoresearch Laboratories, West Grove, Pa.) followed by another wash. […] Protein volume intensity was determined using a Bio-Rad Chemi-Doc XRS system (Bio-Rad, CA). […]

[1] = system: MDM2 in WI-38 fibroblasts; assay: MDM2 protein levels in WI-38 fibroblasts, western blot; assay type: cell-based, human
p53 in WI-38 fibroblasts = assay: p53 expression in WI-38 fibroblasts, western blot; assay type: cell-based, human
[2] = system: Tsp-1 expression in WI-38 lung fibroblasts; assay: Tsp-1 expression in WI-38 lung fibroblasts, western blot; assay type: cell-based, human
Method: (§1) For the conditioned media assay, 1.5×10^6 tumor cells and fibroblasts cells were grown in the tumor cell media containing 0.1% FBS for 12 hours at which point the conditioned media from the tumor cells was centrifuged to remove any cells or cell debris and transferred to the fibroblasts subsequent to removal of the low serum fibroblast growth media. All assays were performed a minimum of five times and representative samples depicted. The fibroblasts and media were harvested after 12 to 16 hours after addition of the tumor cell conditioned media and lysed for the western blot analysis while the conditioned media was collected for ELISA analysis. For the co-culture assays, 1×10^6 fibroblasts were seeded in the bottom chamber of transwell tissue culture plates (Corning Inc., Corning, N.Y.) and 1×10^6 tumor cells were seeded on the membrane in the top chamber of the plates. The two cell types were co-cultured for 40 to 44 hours in tumor cell media containing 0.1% FBS before harvesting and lysing the fibroblasts for western blot analysis and collecting the media for ELISA analysis.
For Western blotting, cells were harvested by mechanical scraping into 4° C. PBS, cell pellets were obtained by removing PBS after centrifugation at 13,000 rpm in a Heraeus Biofuge Fresco (Thermo Electron, Asheville, N.C.) for 2 min. Cells were then lysed in 50 mM Tris-HCl (pH 7.4), 150 mM NaCl, 1% NP40, 1 mM sodium orthovanadate, 5 mM NaF, 20 mM β-glycerophosphate, and complete protease inhibitor (Roche, Indianapolis, Ind.) and protein concentrations were determined by the BioRad protein assay (BioRad, Hercules, Calif.). Fifty micrograms of protein were loaded per well onto a 4-12% pre-cast Bis-Tris gel (BioRad, Hercules, Calif.). The protein extracts were electrophoresed and transferred to an immobilon-P membrane (Millipore, Bedford, Mass.). The membranes were blocked in 5% nonfat milk and incubated in primary antibody to Tsp-1 (Ab-11, LabVision, Fremont, Calif.), c-Myc and phospho-Myc (Cell Signaling Technology, Beverly, Mass.), Prosaposin (Santa Cruz Biotechnology, Santa Cruz, Calif.), β-actin (AbCam, Cambridge, UK). The membranes were then washed in PBS+0.1% Tween-20 and incubated with either HRP-conjugated goat anti-mouse or anti-rabbit secondary antibody (Jackson Immunoresearch Laboratories, West Grove, Pa.) followed by another wash. The membrane was then developed with ECL reagent (Pierce, Rockford, Ill.) and exposed on film. Protein volume intensity was determined using a Bio-Rad Chemi-Doc XRS system (Bio-Rad, CA). […]
Seven 20-amino acid (20-mer) peptides derived from saposin A were tested for ability to stimulate Tsp-1 expression in fibroblasts. […] WI-38 lung fibroblasts were treated with these peptides overnight and the Tsp-1 expression was analyzed by Western blot analysis. […]

[3] = system: Tsp-1 expression in prostate fibroblasts; assay: Tsp-1 expression in prostate fibroblasts, western blot; assay type: cell-based, human; details: for stimulation of Tsp-1 by PC3 conditioned media in the presence of inhibitor: prostate fibroblasts treated with PC3 CM plus inhibitor
Method: (§2) Methods of assaying the effects of mutant, fragment or variant Psap on Tsp-1 and p53 expression are described herein. Briefly, full-length, mutant, fragment and variant Psap are applied to the cell cultures prostate fibroblast. The conditioned media from PC3M-LN4 (LN4) and PC3 cells are used as controls, with PC3 as positive/stimulating control and LN4 as negative/inhibiting controls. After a period of included (˜16 h), the cells are harvested, rinsed, and lysed. The lysates are analyzed for the level of Tsp-1 and p53 expression by western blot analyses, with β-actin as the internal lysate protein loading control.
as §1
For Western blotting, cells were harvested by mechanical scraping into 4° C. PBS, cell pellets were obtained by removing PBS after centrifugation at 13,000 rpm in a Heraeus Biofuge Fresco (Thermo Electron, Asheville, N.C.) for 2 min. Cells were then lysed in 50 mM Tris-HCl (pH 7.4), 150 mM NaCl, 1% NP40, 1 mM sodium orthovanadate, 5 mM NaF, 20 mM β-glycerophosphate, and complete protease inhibitor (Roche, Indianapolis, Ind.) and protein concentrations were determined by the BioRad protein assay (BioRad, Hercules, Calif.). Fifty micrograms of protein were loaded per well onto a 4-12% pre-cast Bis-Tris gel (BioRad, Hercules, Calif.). The protein extracts were electrophoresed and transferred to an immobilon-P membrane (Millipore, Bedford, Mass.). […] Protein volume intensity was determined using a Bio-Rad Chemi-Doc XRS system (Bio-Rad, CA).

[4] = system: p53 expression in prostate fibroblasts; assay: p53 expression in prostate fibroblasts, western blot; assay type: cell-based, human
Method: as §2, with “control. […]” for “control.”
For Western blotting, cells were harvested by mechanical scraping into 4° C. […] Cells were then lysed in 50 mM Tris-HCl (pH 7.4), 150 mM NaCl, 1% NP40, 1 mM sodium orthovanadate, 5 mM NaF, 20 mM β-glycerophosphate, and complete protease inhibitor (Roche, Indianapolis, Ind.) and protein concentrations were determined by the BioRad protein assay (BioRad, Hercules, Calif.). […] Protein volume intensity was determined using a Bio-Rad Chemi-Doc XRS system (Bio-Rad, CA).
Having determined that p53 protein levels were elevated in the stroma of PC3 tumors, the inventors determined if p53 stimulation could be responsible for the increased expression of Tsp-1. […]

thrombospondin-1 (Tsp-1) = assay: Tsp-1 expression in lungs and livers of treated mice, western blot; assay type: in vivo
Method: The 20-mer […] (SEQ. ID. No. 29) was tested in vivo in mice for their ability to induce Tsp-1 expression. Four mice were treated with the 20-amino acid peptide (residues 31-50 of saposin A) at a dose of 30 mg/kg/day in combination with 200 μL of conditioned media (CM) from the metastatic prostate cancer cell line PC3M-LN4. […] Another four mice were treated with CM from PC3M-LN4 alone, and a control group of four mice with treated with vehicle (PBS) alone. […] Mice were treated for 9 days after which they were sacrificed and the lungs and livers were harvested and lysed. Tissue lysates were then run on a 4-12% gradient bis-tris polyacrylamide gel and transferred to a nitrocellulose membrane for western blotting with antibodies specific for thrombospondin-1 (Tsp-1) and β-actin.

semaphorin 3F = semaphorin 3F mRNA in WI-38 fibroblasts, real time RT-PCR; assay type: cell-based, human; details: conditioned media of cells with or without prosaposin, relative to GAPDH
Method: FIG. 25. mRNA levels of semaphorin 3F, relative to GAPDH, in WI-38 fibroblasts that were untreated (NoTxPrSc) treated with conditioned media from PC3, PC3-shprosaposin (PC3-sh), PC3M-LN4 (LN4) and PC3M-LN4 cells ectopically expressing prosaposin (LN4Psap) as determined by real time RT-PCR.
Finally, it was determined that prosaposin stimulates the expression of semaphorin 3F, a transcriptional target of p53 and an inhibitor of metastasis and lymphangiogenesis, at the mRNA level (FIG. 25).

[5] = WI-38 fibroblasts, in the presence of the cyclic 13-mer
[6] = WI-38 fibroblasts treated with peptide
[7] = WI-38 lung fibroblasts treated with peptide
[8] = mice treated for 9 days, versus control
[9] = mice, 30 mg/kg/day with 200 μL PC3M-LN4 CM, 9 days, compared to PC3M-LN4 CM

4-hydroxy-tamoxifen [4-HT]
reduction in Psap levels (Psap in PC3-MycER cells): 4 fold

NC(=O)c1ccc(-c2nc(-c3ccc4c(c3)OCCO4)c(-c3ccccn3)[nH]2)cc1 [D4476, reference compound]
MDM2 protein level (in words) [1, 5]: increase | p53 protein level (in words) (p53 in WI-38 fibroblasts; [5]): reduction | Tsp-1 protein level (in words) [2, 5]: reduction

COc1ccc2c(c1)c(C1=C(c3c[nH]c4ccccc34)C(=O)NC1=O)cn2CCCN(C)C [GO 6983, reference compound]
stimulation of Tsp-1 by PC3 conditioned media in the presence of inhibitor [3]: abolished | stimulation of p53 by PC3 conditioned media in the presence of inhibitor ([4]; prostate fibroblasts treated with PC3 CM plus inhibitor): abolished

CDWLPKPNMSASC (disulfide 1-13) [SEQ. ID. No. 37, cyclic 13 amino acid peptide, residues 35-47 of saposin A]
MDM2 protein level (in words) [1, 6]: down regulation | p53 expression (in words) (p53 in WI-38 fibroblasts; [6]): sufficient to stimulate | Tsp-1 expression (in words) [2, 7]: sufficient to stimulate

LEKTCDWLPKPNMSASCKEI [SEQ. ID. No. 29, 20-mer, residues 31-50 of saposin A]
level of Tsp-1 stimulation relative to PC3 conditioned media (thrombospondin-1 (Tsp-1); mice treated for 9 days, lung and liver): greater | Tsp-1 expression in the liver (in words) (thrombospondin-1 (Tsp-1); [8]): stimulated | Tsp-1 expression in the lung (in words) (thrombospondin-1 (Tsp-1); [8]): stimulated | stimulation of Tsp-1 expression in the liver (thrombospondin-1 (Tsp-1); [9]): 4 fold | stimulation of Tsp-1 expression in the lung (thrombospondin-1 (Tsp-1); [9]): 6 fold | Tsp-1 expression (in words) [2, 7]: able to stimulate

B1: prosaposin: saposin precursor protein, purified from PC3M-LN4 conditioned media with Talon metal affinity resin (protein, listed as Homo sapiens)
chain: MYALFLLASLLGAALAGPVLGLKCTRGSAVWCQNVKTASDCGAVKHCLQTVWNKPTVKSLPCDICKDVVTAAGDMLKDNATILVYLKTCDWLPKPNMSASCKIVDSYLPVILDIIKGMSRPGVCSALNLCSLQKHLALNHQKQLSNKIPLDMTVVAPFMANIPLLLYPQDGPRSKPQPKDNGDVCQDCIQMVTDIQTAVRTNSTFVQALVHVKCDRLGPGMADICKNYISQYSIAIQMMMHMQPKICALVGFCDVKMPMQTLVPAKVASKNVIPALLVPIKKHVPAKSDVYCVCFLVKVTKLIDNNKTKILDAFDKMCSKLPKSLSCQVVDTYGSSILSILLVSPLVCSMLHLCSGTRLPALTVHVTQPKDGGFCVCKKLVGYLDRNLKNSTKQILAALKGCSFLPDPYQKQCDQFVAYPVLIILVVMDPSFVCLKIGACPSAHKPLLGTKCIWGPSYWCQNTTAAQCNAVHCKRHVWN
stimulation of Tsp-1 expression ([3]; prostate fibroblasts, western blot, band volume density, purified Psap 5 μg): ~5 fold | expression of semaphorin 3F at the mRNA level (semaphorin 3F): stimulates | p53 expression (in words) ([4]; prostate fibroblasts, western blot): stimulated

B2: RAP: Receptor Associate Protein, a competitive inhibitor of LRP binding (protein)
chain: YSREKNQPKPSPKRESGEEFRMEKLNQLWEKAQRLHLPPVRLAELHADLKIQERDELAWKKLKLDGLDEDGEKEARLIRNLNVILAKYGLDGKKDARQVTSNSLSGTQEDGLDDPRLEKLWHKAKTSGKFSGEELDKLWREFLHHKEKVHEYNVLLETLSRTEEIHENVISPSDLSDIKGSVLHSRHTELKEKLRSINQGLDRLRRVSHQGYSTEAEFEEPRVIDLWDLAQSANLTDKELEAFREELKHFEAKIEKHNHYQKQLEIAHEKLRHAESVGDGERVSRSREKHALLEGRTKELGYTVKKHLQDLSGRISRARHNEL
stimulation of Tsp-1 by PC3 conditioned media in the presence of inhibitor [3]: no longer stimulated

B3: SLPCDICKDVVTAAGDMLKDNATEEEILVYLEKTCDWLPKPNMSASCKEIVDSYLPVILDIIKGEMSRPGEVCSALNLCES (protein, listed as Homo sapiens)
chain: SLPCDICKDVVTAAGDMLKDNATEEEILVYLEKTCDWLPKPNMSASCKEIVDSYLPVILDIIKGEMSRPGEVCSALNLCES
notes: cleavage product of Psap, expressed as truncation mutant
stimulation of Tsp-1 (in words) ([3]; prostate fibroblasts, conditioned media of PC3M-LN4 cells transfected with truncation mutants): minimal domain that is functionally required for the stimulation of Tsp-1 | Tsp-1 expression (in words) ([2]; lung fibroblasts, CM from PC3M-LN4 cells transduced with truncated mutants of prosaposin): sufficient to stimulate
